Literature values as cited in patent US20220370561A1, “LITHIUM AS A MONOTHERAPY AND/OR STEM CELL ADJUVANT THERAPY FOR PULMONARY FIBROSIS” (Therapeutic Solutions International, Inc., priority 2021, published 2022).
Where two headings read alike, the source gives them in different places. Blank lines part the entries; values can stand above or below the compound they belong to.

Legend:
[1] = danazol orally 800 mg per day
p16/p21 pathway = conditions: in vitro pre-mature senescence model
mesenchymal stem cells = conditions: culture of cells with valproic acid
[2] = 12 months, exploratory analysis

elevated liver-enzyme levels of grade 2 or less, patients [1]: 41% | muscle cramps of grade 2 or less, patients [1]: 33%
SMILES: C#C[C@]1(O)CC[C@H]2[C@@H]3CCC4=Cc5oncc5C[C@]4(C)[C@H]3CC[C@@]21C [danazol]
mean increase in telomere length (telomere length; 6 months, exploratory analysis): 175 bp | patients with increase in telomere length (telomere length; 6 months, exploratory analysis): 16 of 21 | mean increase in telomere length (telomere length; [2]): 360 bp | patients with increase in telomere length (telomere length; [2]): 16 of 18 | mean increase in telomere length (telomere length; 24 months compared with baseline): 386 bp | patients with a gain in telomere length compared with baseline (telomere length; 24 months, 11 of 12): 92% | telomere attrition in patients evaluable for the primary end point (telomere length; danazol orally 800 mg per day, 24 months): reduced in all 12 patients | patients meeting the primary efficacy end point (20% reduction in annual rate of telomere attrition), intention-to-treat (telomere length; danazol orally 800 mg per day, 24 months, 12 of 27 patients): 44% | hematologic responses (3 months, 19 of 24 evaluable patients): 79% | hematologic responses (24 months, 10 of 12 evaluable patients): 83%

SMILES: CCCC(CCC)C(=O)O [valproic acid]
G2/M phase blockage derived from the senescence stress (p16/p21 pathway): inhibited the G2/M phase blockage | cell proliferation (p16/p21 pathway): increased cell proliferation | apoptosis (p16/p21 pathway; through suppression of the p16/p21 pathway): inhibited apoptosis | immune regulatory and metabolic properties of mesenchymal stem cells (mesenchymal stem cells): enhanced
